compound: CC(C)N(CCCNC(=O)Nc1ccc(C(C)(C)C)cc1)C[C@H]1O[C@@H](n2ccc3c(N)ncnc32)[C@H](O)[C@@H]1O + N=C(N)NC(=N)NCCc1ccccc1 [Phenformin] (partner 250 µM); assay: relative viability (nuclei count vs DMSO), 5 days (fraction); higher = more cells survive; conditions: first compound 8 µM
Summary of the method: (§1)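 Lung cancer cell lines in 1536-well plates got either a single drug or a fixed anchor-drug dose together with five library-drug doses (not always all listed) in √10 steps, by pin tool, on the day after seeding. Nuclei were counted after 5 days, and relative viability is the treated-to-vehicle ratio of nuclei counts. Values are medians of duplicate plates.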

Cell Line	relative viability
LK-2	0.411
NCI-H2126	0.496
SK-MES-1	0.617
H3255	0.372
COR-L23	0.418
COR-L 105	0.473
LOU-NH91	0.671
ChaGo-K-1	0.46
NCI-H2170	0.396
NCI-H3122	0.358
HOP-62	0.545
HCC-44	0.125
A549	0.105
NCI-H522	0.56
LU99A	0.787
BEN	0.287
HARA	0.363
SW 900	0.486
HCC-78	0.717
NCI-H441	0.824
LCLC-97TM1	0.43
NCI-H596	0.713
NCI-H1563	0.697

compound: CC(C)=CC[C@@H](O)C1=CC(=O)c2c(O)ccc(O)c2C1=O [Shikonin] + CC(=O)c1c(C)c2cnc(Nc3ccc(N4CCNCC4)cn3)nc2n(C2CCCC2)c1=O [Palbociclib] (partner 0.5 µM); assay: as above; conditions: first compound 0.01 µM
Summary of the method: as §1

Cell Line	relative viability
NCI-H2342	0.499
PC-14	0.397
NCI-H1650	0.395
NCI-H2009	0.248
NCI-H1993	0.687
NCI-H520	0.191
PC-3 [JPC-3]	0.59
LCLC-103H	0.462
NCI-H647	0.487
NCI-H2228	0.812
EMC-BAC-2	0.512
NCI-H2087	0.235
HCC-366	0.415
NCI-H1666	0.648
NCI-H650	0.325
LK-2	0.772
NCI-H2126	0.362
NCI-H1648	0.282

Cell Line	relative viability
SK-MES-1	0.317
H3255	0.316
COR-L23	0.26
COR-L 105	0.447
LOU-NH91	0.546
ChaGo-K-1	0.977
NCI-H2170	0.392
NCI-H3122	0.228
HOP-62	0.471
HCC-44	0.979
NCI-H522	1.03
LU99A	0.457
BEN	0.47
HARA	0.262
SW 900	0.563
HCC-78	0.459
NCI-H441	0.225
LCLC-97TM1	0.293

same assay, conditions: first compound 0.1 µM

Cell Line	relative viability
NCI-H2342	0.465
PC-14	0.535
NCI-H1650	0.448
NCI-H2009	0.203
NCI-H1993	0.672
NCI-H520	0.206
PC-3 [JPC-3]	0.589
LCLC-103H	0.498
NCI-H647	0.325
NCI-H2228	0.939
EMC-BAC-2	0.573
NCI-H2087	0.234
HCC-366	0.4
NCI-H1666	0.664
NCI-H650	0.314
LK-2	0.869
NCI-H2126	0.408
SK-MES-1	0.3

Cell Line	relative viability
H3255	0.333
COR-L23	0.299
COR-L 105	0.388
LOU-NH91	0.526
ChaGo-K-1	1.09
NCI-H2170	0.376
NCI-H3122	0.215
HOP-62	0.581
HCC-44	0.991
NCI-H522	1.28
LU99A	0.486
BEN	0.465
HARA	0.285
SW 900	0.559
HCC-78	0.481
NCI-H441	0.219
LCLC-97TM1	0.279

same assay, conditions: first compound 0.3162 µM

Cell Line	relative viability
NCI-H2342	0.526
PC-14	0.524
NCI-H1650	0.247
NCI-H2009	0.213
NCI-H1993	0.722
NCI-H520	0.229
PC-3 [JPC-3]	0.538
LCLC-103H	0.521
NCI-H647	0.38
NCI-H2228	0.754
EMC-BAC-2	0.538
NCI-H2087	0.219
HCC-366	0.316
NCI-H1666	0.617
NCI-H650	0.334
LK-2	0.773
NCI-H2126	0.379
NCI-H1648	0.273

Cell Line	relative viability
SK-MES-1	0.295
H3255	0.337
COR-L23	0.306
COR-L 105	0.483
LOU-NH91	0.549
ChaGo-K-1	0.968
NCI-H2170	0.395
NCI-H3122	0.178
HOP-62	0.559
HCC-44	0.984
NCI-H522	0.936
LU99A	0.348
BEN	0.437
HARA	0.248
SW 900	0.547
HCC-78	0.461
NCI-H441	0.225
LCLC-97TM1	0.279

same assay, conditions: first compound 1 µM

Cell Line	relative viability
NCI-H2342	0.537
PC-14	0.509
NCI-H1650	0.319
NCI-H2009	0.145
NCI-H1993	0.455
NCI-H520	0.208
PC-3 [JPC-3]	0.552
LCLC-103H	0.429
NCI-H647	0.361
NCI-H2228	0.729
EMC-BAC-2	0.513
NCI-H2087	0.256
HCC-366	0.388
NCI-H1666	0.599
NCI-H650	0.34
LK-2	0.664

Cell Line	relative viability
NCI-H2126	0.349
NCI-H1648	0.238
SK-MES-1	0.288
H3255	0.303
COR-L23	0.29
COR-L 105	0.402
LOU-NH91	0.5
ChaGo-K-1	0.968
NCI-H2170	0.422
NCI-H3122	0.176
HOP-62	0.447
HCC-44	1
NCI-H522	1.17
LU99A	0.38
BEN	0.54
